# Values quoted from earlier work as cited in patent US20070298135A1, “TOPICAL HERBAL FORMULATIONS” (BIOBOTANIC CORP., priority 2006, published 2007).
compound,measurement,setting,value
C[C@@H]1CC[C@@]2(OC1)O[C@H]1C[C@H]3[C@@H]4CC=C5C[C@@H](O[C@@H]6O[C@H](CO)[C@@H](O[C@@H]7O[C@@H](C)[C@H](O)[C@@H](O)[C@H]7O)[C@H](O)[C@H]6O[C@@H]6O[C@@H](C)[C@H](O)[C@@H](O)[C@H]6O)CC[C@]5(C)[C@H]4CC[C@]3(C)[C@H]1[C@@H]2C [Doscin],solubility in lipophilic organic solvent,lipophilic organic solvent,insoluble
same,solubility in polar liquid media,"methanol, ethanol, n-butanol, water, hydrate methanol and ethanol, soluble = at least 0.1 mg/ml (w/v) at about 25° C.",soluble
